From patent publication US20210134398A1, “Combinatorial Chemistry Computational System and Enhanced Selection Method” (Southern Methodist University, priority 2019, published 2021) come the findings set out here.

Data set [1] concerns the target P-gp (P-gp over-expressing cell line, DU145TXR) (Homo sapiens, UniProt P08183). Nature of the data set: Cellular accumulation of experimental compounds by LC-MS/MS with and without tariquidar. Conditions: for Transport substrate for P-gp: not told. As to the method: Stimulation of basal ATPase by 29-variants was used as an indicator that a compound may be a P-gp transport substrate. Effects on stimulated P-gp ATPase activity indicated whether a compound directly interfered with ATP usage by the protein (***, p<0.001; **, p<0.01; *, p<0.1; NS, not significant). Quantitative cellular accumulation of 29-variants was performed using LC-MS/MS and is presented as a ratio of the cellular amounts of 29-variants in the presence of P-gp inhibitor, tariquidar, divided by amounts accumulated in its absence. […] Binding of an ATP analog, SL-ATP, to P-gp was used to determine whether ATP binding to P-gp was affected by the 29-variants. Values +/−standard deviations are shown for at least three different P-gp preparations and three independent SL-ATP titration experiments. The values for SL-ATP binding in the presence of 29 were taken directly from Brewer et al. (2014).
Intracellular accumulation of compound 29 variants. Cell accumulation assays for each of the 29 variants were performed as in reference^28 to more directly assess whether the compounds were indeed transport substrates for P-gp.
Cellular Accumulation Assays for Experimental P-gp Inhibitors. Cells used (DU145TXR), cell culturing, cell exposure to compounds, cellular handling and extractions were performed as described in^28. LC-MS/MS methods were performed as described in^71 and as modified in^28.

Data set [2] deals with T1, Normal Human MDR1 P-glycoprotein (Homo sapiens, UniProt P08183).
T1 construct: made in house; host or cells: Pichia pastoris (P-gp); E. coli BL21 (DE3) (MSP1E3D1)
The experiment in a line: ATPase activity assay (basal and verapamil-stimulated), P-gp in nanodiscs. The format is biochemical. Conditions: for Effect on stimulated ATPase / Stimulated ATPase: in the presence of verapamil; for Stimulated ATPase / Basal ATPase: ± standard deviation; for Effect on basal ATPase / Basal ATPase: no added transport substrate. From the text:
To assess whether the observed discrepancies of compounds stimulating basal P-gp ATPase activity but not being transport substrates of the human pump in the cell culture assessments were due to the fact that these biochemical assays used a cysteineless variant of the mouse MDR3 P-glycoprotein, the experiments were repeated using normal human MDR1 P-gp. In order to stabilize the human protein for the activity assays, the protein was assembled into membrane nanodiscs as described herein.
P-glycoprotein Purification. Cysteine-less MDR3 and the human normal MDR1 P-glycoprotein was recombinantly expressed in the yeast Pichia pastoris essentially as in^45, 46 and used for assaying ATP hydrolysis and ATP binding to the protein in the presence of the 29-variants. Purification of the protein was performed as described^49 with small modifications resulting in highly enriched P-gp in mixed micelles containing dodecyl maltoside (DDM) and lysophosphatidyl choline^26.
Nanodisc assembly. Human P-gp in mixed detergent micelles obtained during protein purification, was reconstituted into nanodiscsas described in references^73, 74 with small modifications. […] The detergent was removed with Bio-Beads™ SM-2 Adsorbent Media (BioRad). Ni-NTA Agarose (Qiagen) chromatography was used to purify P-gp reconstituted nanodiscs using 6 bed volumes of start buffer (20% (v/v) glycerol, 50 mM Tris-CL pH 7.5 at 4° C., 50 mM NaCl), and 5 bed volumes of elution buffer (20% (v/v) glycerol, 50 mM Tris-Cl pH 7.5 at 4° C., 50 mM NaCl, 300 mM imidazole).
ATPase Activity Assays. ATP hydrolysis activity was measured using a coupled enzyme assay^72 as modified in reference^26.

The test system of data set [3] is P-gp overexpressing prostate cancer cell line, DU145TXR. Nature of the data set: MTT cell viability assay, resensitization to paclitaxel. Format: cell-based, human. Conditions: for Fold vs PTX + 29: vs paclitaxel + parental compound 29; for Fold vs PTX (fold increased sensitivity): vs paclitaxel alone; for Resensitization of DU145TXR to paclitaxel / MDR reversal (in words): 3 to 10 μM inhibitor. From the text:
The Group 1 ChemGen/docking routine produced variants of P-gp inhibitor 29 resensitize a multidrug resistant, P-gp overexpressing prostate cancer cell line to paclitaxel. The mitochondrial reduction potential of cells is often used as an indicator for cell viability using MTT assays^4. Using these assays it was observed that the five Group 1 derivatives of 29 predicted through the ChemGen/docking routine and synthesized here, 216, 227, 231, 541 and 551, re-sensitized the P-gp overexpressing prostate cancer cell line, DU145TXR^33, to the chemotherapeutic, paclitaxel (FIG. 12, showing results of assays at concentrations of 3 μM, 5 μM, 7 μM, and 10 μM).
Cytotoxicity of the chemotherapeutic, paclitaxel (PTX) to P-gp overexpressing prostate cancer cells, DU145TXR, was determined in the absence and presence of the ChemGen designed 29-variants, 216, 227, 231, 541 and 551. For each experimental compound IC50 values of PTX alone or in the presence of inhibitors, fold improvement of PTX sensitivity in the presence of inhibitor, and fold improvement of PTX sensitivity by variants compared to parental compound 29 are given.
Effects of Group 2 variants on the paclitaxel sensitivity of P-glycoprotein overexpressing prostate cancer cells, DU145TXR. MTT assays were again used to assess the efficacy of the new structural 29-variants on sensitizing the chemotherapy-resistant prostate cancer cell line, DU145TXR, to paclitaxel, at concentrations of 3 μM, 5 μM, 7 μM, and 10 μM as shown in FIG. 15 and Table 4.
MTT cell viability assay. Cells were trypsinized from monolayers and seeded with 3000 cells in 150 μL of complete medium in a 96 well plate. After 24 hours, cells were treated for 48 hours with paclitaxel (Acros Organics, NJ) and/or P-gp inhibitory compounds dissolved in DMSO, or DMSO controls. All additions were diluted into complete medium. After 48 hours of treatment, MTT assays were performed as described^41 using 5 mg/mL of MTT (Acros Organics, NJ) solution prepared in PBS (137 mM NaCl, 2.7 mM KCl, 10 mM Na2HPO4, 1.8 mM KH2PO4, pH 7.4). After 4 hours of incubation with MTT, the media was removed and the formazan crystals were dissolved in 100 μL of DMSO. The absorbance at 570 nm was then measured using a BioTek Cytation 5 imaging multi-mode reader (Bio-Tek, Winooski, Vt.). Percent viability was calculated using DMSO treated cells as representative for 100% viability, according to Equation 1. Background absorbance was determined using MTT and complete medium without cells and subtracted from all the test values. Equation 1:
The results were plotted as the mean with standard deviation (SD) of eight replicates per concentration from at least two independent experiments with n=8. The graphical representations and IC50 values were determined using four parameter variable slope non-linear regression, using the following equation: Y=bottom+(top-bottom)/(1+10^((log IC50−X)*Hill Slope) (GraphPad Prism™, La Jolla Calif., USA, Version 6.05). The reported “fold sensitization” was calculated as follows, per Equation 2: […]
Background: Tetrazolium dyes change colour on reduction, which living cells bring about.

Entries after “also recorded” stand apart in the source; their conditions may differ. Like-named read-outs stand apart in the source and are kept apart here.

Chain of P-gp (P-gp over-expressing cell line, DU145TXR) (P08183 whole entry): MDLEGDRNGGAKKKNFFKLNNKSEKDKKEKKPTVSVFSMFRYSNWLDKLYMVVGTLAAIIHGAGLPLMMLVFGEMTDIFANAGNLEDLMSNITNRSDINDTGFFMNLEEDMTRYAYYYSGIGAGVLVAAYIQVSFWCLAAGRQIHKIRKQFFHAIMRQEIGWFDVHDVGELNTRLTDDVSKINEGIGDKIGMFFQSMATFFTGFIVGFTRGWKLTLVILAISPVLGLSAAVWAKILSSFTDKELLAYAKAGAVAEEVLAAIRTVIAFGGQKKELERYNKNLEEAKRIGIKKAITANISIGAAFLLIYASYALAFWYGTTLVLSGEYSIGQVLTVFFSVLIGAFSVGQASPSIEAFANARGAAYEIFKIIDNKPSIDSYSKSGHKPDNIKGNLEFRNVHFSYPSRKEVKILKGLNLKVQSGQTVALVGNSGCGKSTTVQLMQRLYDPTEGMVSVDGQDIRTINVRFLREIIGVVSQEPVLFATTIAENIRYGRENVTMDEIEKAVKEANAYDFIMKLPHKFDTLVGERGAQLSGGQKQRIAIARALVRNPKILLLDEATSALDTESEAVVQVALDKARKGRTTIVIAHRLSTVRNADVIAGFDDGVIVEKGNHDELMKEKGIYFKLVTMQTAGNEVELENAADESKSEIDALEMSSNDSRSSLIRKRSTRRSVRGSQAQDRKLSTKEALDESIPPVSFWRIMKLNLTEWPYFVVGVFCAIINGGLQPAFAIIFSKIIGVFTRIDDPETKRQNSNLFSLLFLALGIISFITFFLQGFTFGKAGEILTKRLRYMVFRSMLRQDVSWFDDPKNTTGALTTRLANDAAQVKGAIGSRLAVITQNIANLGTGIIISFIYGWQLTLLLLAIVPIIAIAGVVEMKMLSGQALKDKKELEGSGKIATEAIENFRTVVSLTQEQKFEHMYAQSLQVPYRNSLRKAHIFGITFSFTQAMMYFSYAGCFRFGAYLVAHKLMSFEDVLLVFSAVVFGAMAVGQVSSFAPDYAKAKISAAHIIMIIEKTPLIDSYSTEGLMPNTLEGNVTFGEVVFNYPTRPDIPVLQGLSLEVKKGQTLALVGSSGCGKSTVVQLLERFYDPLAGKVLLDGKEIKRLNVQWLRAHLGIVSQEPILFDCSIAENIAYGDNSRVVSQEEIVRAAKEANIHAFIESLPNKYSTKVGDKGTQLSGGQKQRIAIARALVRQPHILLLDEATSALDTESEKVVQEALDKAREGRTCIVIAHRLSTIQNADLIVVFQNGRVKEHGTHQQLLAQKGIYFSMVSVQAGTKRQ
T1 sequence (P08183 whole entry): as above

On to “2-{[2-(9H-flouoren-2-yl)-2-oxoethyl]}-N-[1-phenyl-3-(2,4,5-trimethylphenyl0-1H-pyrazol-5-yl]acetamide [29-216]”, for which, in data set [1], the “Cellular accumulation: ratio of plus Tariquidar over no Tariquidar” value stood at 1.1. In data set [2], the “Effect on stimulated ATPase” value is “inhibitor”, the “Stimulated ATPase” value is given as 64 ± 6 % of DMSO, the “Effect on basal ATPase” value is “inhibitor” and the “Basal ATPase” value was 69 ± 8 % of DMSO. In data set [3] (5 μM inhibitor), the “Fold vs PTX + 29” value was found to be 1.3 fold and the “Fold vs PTX (fold increased sensitivity)” value was found to be 14 fold. Besides, in data set [3] (7 μM inhibitor), the “Fold vs PTX + 29” value was determined as 1 fold and the “Fold vs PTX (fold increased sensitivity)” value stood at 34 fold. For the same compound, in data set [3] (10 μM inhibitor), the “Fold vs PTX + 29” value was found to be 0.4 fold and the “Fold vs PTX (fold increased sensitivity)” value was found to be 37 fold.
On to `Cc1cc(C)c(-c2cc(NC(=O)CSCC(=O)N3c4ccccc4CCc4ccccc43)n(-c3ccccc3)n2)cc1C` [29-227, 2-[(2-{2-azatricyclo[9.4.0.0]pentadeca-1(11),3(8},4,6,12,14-hexaen-2-yl)-2-oxoethyl)sulfanyl]-N-[1-phenyl-3-(2,4,5-trimethylphenyl)-1H-pyrazol-5-yl]acetamide], for which the “Cellular accumulation: ratio of plus Tariquidar over no Tariquidar” value in data set [1] worked out at 1.0. Besides, the “Effect on stimulated ATPase” value in data set [2] was “inhibitor”. Besides, the “Stimulated ATPase” value in data set [2] is 62 ± 5 % of DMSO. The “Effect on basal ATPase” value in data set [2] was “none”. Also, in data set [2], the “Basal ATPase” value is 83 ± 7 % of DMSO. Moreover, the “Fold vs PTX + 29” value is given as 3.8 fold in data set [3] (3 μM inhibitor, listed as 227); 3.7 fold in data set [3] (5 μM inhibitor); 10 fold in data set [3] (7 μM inhibitor); 5 fold in data set [3] (10 μM inhibitor). Also, the “Fold vs PTX (fold increased sensitivity)” value is 13 fold in data set [3] (3 μM inhibitor), 41 fold in data set [3] (5 μM inhibitor), 353 fold in data set [3] (7 μM inhibitor) and 530 fold in data set [3] (10 μM inhibitor). Further, the “Resensitization of DU145TXR to paclitaxel / MDR reversal (in words)” value in data set [3] (listed as 227) was “re-sensitized; also recorded: more effective than 29 at all concentrations tested”.
Take `Cc1cc(C)c(-c2cc(NC(=O)CSCC(=O)Nc3ccc4ccccc4c3)n(-c3ccccc3)n2)cc1C` [29-231, 2-({[(naphthalen-2-yl)carbamoyl]methyl}sulfanyl)-N-[1-phenyl-3-(2,4,5-trimethylphenyl)-1H-pyrazol-5-yl]acetamide]: in data set [1], the “Intracellular accumulation in absence vs presence of tariquidar (in words)” value is “no significant cellular accumulation” and the “Transport substrate for P-gp” value was “no”. Also, in data set [1] (human), the “Cellular accumulation: ratio of plus Tariquidar over no Tariquidar” value was 0.9 and the “Transport substrate for P-gp” value is on record as “none of the Group 1 compounds functions as a transport substrate of P-gp”. For the same compound, in data set [2], the “Effect on stimulated ATPase” value is on record as “inhibitor”, the “Stimulated ATPase” value is given as 40 ± 3 % of DMSO, the “Effect on basal ATPase” value is recorded as “inhibitor” and the “Basal ATPase” value was 70 ± 4 % of DMSO. Besides, the “Fold vs PTX + 29” value in data set [3] (3 μM inhibitor, listed as 231) came out at 4.1 fold. For the same compound, in data set [3] (3 μM inhibitor), the “Fold vs PTX (fold increased sensitivity)” value is listed as 14 fold. In data set [3] (5 μM inhibitor), the “Fold vs PTX + 29” value is 4.2 fold and the “Fold vs PTX (fold increased sensitivity)” value is on record as 46 fold. Further, in data set [3] (7 μM inhibitor), the “Fold vs PTX + 29” value stood at 8.4 fold and the “Fold vs PTX (fold increased sensitivity)” value turned out to be 303 fold. In addition, in data set [3] (10 μM inhibitor), the “Fold vs PTX + 29” value came to 11 fold and the “Fold vs PTX (fold increased sensitivity)” value was 1060 fold. Moreover, in data set [3] (listed as 231), the “Resensitization of DU145TXR to paclitaxel / MDR reversal (in words)” value is “re-sensitized; also recorded: more effective than 29 at all concentrations tested”.
As to `COc1cc(NC(=O)CSCC(=O)Nc2cc(-c3cc(C)c(C)cc3C)nn2-c2ccccc2)cc(OC)c1OC` [29-238, N-[1-phenyl-3-(2,4,5-trimethylphenyl)-1H-pyrazol-5-yl]-2-({[(3,4,5-trimethoxyphenyl)carbamoyl]methyl}sulfanyl)acetamide], the “Intracellular accumulation in absence vs presence of tariquidar (in words)” value in data set [1] is “very large and significant increase”. For the same compound, the “Cellular accumulation: ratio of plus Tariquidar over no Tariquidar” value in data set [1] (human) is 1.9. In data set [2], the “Effect on stimulated ATPase” value is “inhibitor”, the “Stimulated ATPase” value is 61 ± 7 % of DMSO, the “Effect on basal ATPase” value is given as “none” and the “Basal ATPase” value was 89 ± 7 % of DMSO. For the same compound, the “Fold vs PTX + 29” value in data set [3] (3 μM inhibitor) is 3.4 fold. In addition, in data set [3] (5 μM inhibitor), the “Fold vs PTX + 29” value is “around 100 fold” and the “Fold vs PTX (fold increased sensitivity)” value is recorded as “about a thousand-fold”. Also, the “Fold vs PTX + 29” value in data set [3] (7 μM inhibitor) is “around 100 fold”. Further, the “Fold vs PTX + 29” value in data set [3] (10 μM inhibitor) came to 300 fold. The “Resensitization of DU145TXR to paclitaxel / MDR reversal (in words)” value in data set [3] (listed as 238) is “increased paclitaxel toxicities to the greatest extents; also recorded: vastly outperformed compounds 278, 280 and 286; also recorded: strongest reversal of MDR”.
Take `Cc1cc(C)c(-c2cc(NC(=O)CSCC(=O)NC(c3ccccc3)c3ccccc3)n(-c3ccccc3)n2)cc1C` [29-280, N-(diphenylmethyl)-2-[({[1-phenyl-3-(2,4,5-trimethylphenyl)-1H-pyrazol-5-yl]carbamoyl)methyl}sulfanyl]acetamide]: the “Cellular accumulation: ratio of plus Tariquidar over no Tariquidar” value in data set [1] (human) is 1.2. In addition, in data set [2], the “Effect on stimulated ATPase” value was “inhibitor”, the “Stimulated ATPase” value was 54 ± 7 % of DMSO, the “Effect on basal ATPase” value was “inhibitor” and the “Basal ATPase” value is 76 ± 8 % of DMSO.
